Results published in patent publication US20140213538A1, “LYSOPHOSPHATIDIC ACID RECEPTOR ANTAGONISTS” (InterMune, Inc., priority 2013, published 2014).

Tests used:
[1] = target: LPA1 (Homo sapiens, UniProt Q92633); test: LPA1 Migration Assay (Oris); type: cell-based; parameters: host or cells: primary fibroblasts (lung, dermal), HFL-1, 3T3 and CHO cells expressing LPA1R; settings: read-out: Cell Migration EC50
Description: LPA1 Migration Assay Migration of primary fibroblasts (including lung, dermal), HFL-1, 3T3 and CHO cells expressing LPA1R were monitored using the Oris™ assay (Platypus Technologies, Madison, Wis.). These cells were dye (Cell Tracker Green™) loaded and serum starved for 12-24 hrs. In response to chemoattractants such as LPA and serum, the cells migrated inward in to the exclusion (detection) zone. After fixing, fluorescent cells in the detection zone were counted using a high content reader. The ability of LPA1 antagonists to inhibit cell migration is quantified by plotting cell number vs. compound concentration and curve fitting the resulting dose-response curve to a 4 parameter logistic function.

[2] = target: T1, LPA/S1P GPCR of interest (Homo sapiens, UniProt Q92633); test: Beta-Arrestin based assay (PathHunter); type: cell-based
T1 construct: host or cells: CHO
T1 sequence (Q92633 whole entry): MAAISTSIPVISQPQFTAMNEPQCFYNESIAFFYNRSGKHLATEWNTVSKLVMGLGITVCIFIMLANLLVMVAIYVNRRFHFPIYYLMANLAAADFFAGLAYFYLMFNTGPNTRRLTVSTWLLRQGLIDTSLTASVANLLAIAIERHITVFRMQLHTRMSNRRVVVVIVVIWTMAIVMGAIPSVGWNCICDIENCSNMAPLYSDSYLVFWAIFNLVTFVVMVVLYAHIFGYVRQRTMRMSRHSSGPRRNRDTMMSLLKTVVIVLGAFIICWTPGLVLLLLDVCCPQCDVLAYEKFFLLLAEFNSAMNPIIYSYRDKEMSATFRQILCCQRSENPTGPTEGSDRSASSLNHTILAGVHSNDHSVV
Outline: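 EA Parental CHO cells (DiscoverX) were transfected with FuGENE (Roche) using CMV promoter-driven DNA constructs encoding the LPA/S1P GPCR of interest fused to a ProLink tag. Beta-arrestin recruitment in agonist mode was assessed 24-48 hrs later with PathHunter kits. Tests ran in quadruplicate in white 384 well plates, and end point luminescence was fit to a 4 parameter logistic function.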

LPA1, sequence (Q92633 whole entry): as above

SMILES	EC50 [1]	EC50 [2]
C[C@@H](OC(=O)Nc1c(-c2ccc(-c3ccc(OC4(C(=O)O)CC4)c(F)c3)cc2)oc2ccccc12)c1ccccc1 [IT492]	> 500 nM	50 to 500 nM
Cc1noc(-c2ccc(-c3ccc(NC(=O)OC(C)(C)C)cc3)cc2)c1NC(=O)O[C@H](C)c1ccccc1 [IT194]	> 500 nM	> 500 nM
CCOc1cc(CC(=O)O)ccc1-c1cc2sc(-c3snc(C)c3NC(=O)O[C@H](C)c3ccccc3)cc2s1 [IT192]	> 500 nM	> 500 nM
Cc1nsc(-c2cc3sc(-c4ccc(CC(=O)O)cc4)cc3s2)c1NC(=O)O[C@H](C)c1ccccc1 [IT133]	> 500 nM	50 to 500 nM
Cc1noc(-c2ccc(-c3ccc(Oc4ccc(F)cc4C(=O)O)cc3)cc2)c1NC(=O)O[C@H](C)c1ccccc1 [IT459]	50 to 500 nM	< 50 nM
Cc1nsc(-c2cc3sc(-c4cc(F)c(CC(=O)O)c(F)c4)cc3s2)c1NC(=O)O[C@H](C)c1ccccc1 [IT156]	> 500 nM	50 to 500 nM
CCC(C)OC(=O)Nc1c(C)noc1-c1ccc(-c2ccc(Oc3ccccc3C(=O)O)cc2)cc1 (single isomer, unassigned) [IT493]	> 500 nM	50 to 500 nM
Cc1noc(-c2ccc(-c3ccc(Oc4ncsc4C(=O)O)cc3)cc2)c1NC(=O)O[C@H](C)c1ccccc1 [IT417]	50 to 500 nM	50 to 500 nM
C[C@@H](OC(=O)Nc1c(-c2cc3sc(-c4ccc(C5(C(=O)O)CC5)c(F)c4)cc3s2)cnn1C)c1ccccc1 [IT295]	50 to 500 nM	< 50 nM
C[C@@H](OC(=O)Nc1c(-c2cc3sc(-c4cc(Cl)c(CC(=O)O)cc4F)cc3s2)nnn1C)c1ccccc1 [IT186]	> 500 nM	> 500 nM
Cc1noc(-c2ccc(-c3ccc(Oc4ncncc4C(=O)O)cc3)cc2)c1NC(=O)O[C@H](C)c1ccccc1 [IT230]	50 to 500 nM	< 50 nM
CCOc1cc(CC(=O)O)ccc1-c1cc2sc(-c3cnn(C)c3NC(=O)O[C@H](C)c3ccccc3)cc2s1 [IT190]	> 500 nM	> 500 nM
Cc1noc(-c2ccc(-c3ccc(Oc4cnccc4C(=O)O)cc3)cc2)c1NC(=O)O[C@H](C)c1ccccc1 [IT257]	50 to 500 nM	< 50 nM
C[C@@H](OC(=O)Nc1c(-c2ccc(-c3ccc(Oc4cc(F)ccc4C(=O)O)cc3)cc2)nnn1C)c1ccccc1 [IT468]	< 50 nM	< 50 nM
Cc1noc(-c2ccc(-c3ccc(Oc4nnccc4C(=O)O)cc3)cc2)c1NC(=O)O[C@H](C)c1ccccc1 [IT231]	50 to 500 nM	50 to 500 nM
Cc1noc(-c2ccc(-c3ccc(Oc4ccccc4C(=O)O)cn3)cc2)c1NC(=O)O[C@H](C)c1ccccc1 [IT344]	50 to 500 nM	< 50 nM
C[C@@H](OC(=O)Nc1c(-c2cc3sc(-c4cc(F)c(C5(C(=O)O)CC5)cc4F)cc3s2)cnn1C)c1ccccc1 [IT347]	50 to 500 nM	< 50 nM
Cc1nnn(-c2ccc(-c3cc(F)c(OC4(C(=O)O)CC4)c(F)c3)cc2)c1NC(=O)O[C@H](C)c1ccccc1 [IT313]	> 500 nM	50 to 500 nM
C[C@@H](OC(=O)Nc1c(-c2cc3sc(-c4ccc(CC(=O)O)cc4F)cc3s2)nnn1C)c1ccccc1 [IT159]	> 500 nM	50 to 500 nM
C[C@@H](OC(=O)Nc1c(-c2ccc(-c3ccc(CC(=O)O)s3)cc2)nnn1C)c1ccccc1 [IT178]	> 500 nM	50 to 500 nM

SMILES	EC50 [1]	EC50 [2]
Cc1noc(-c2ccc(C#Cc3ccccc3C(=O)O)cc2)c1NC(=O)O[C@H](C)c1ccccc1 [IT154]	> 500 nM	> 500 nM
Cc1onc(-c2cc3sc(C#CC4(C(=O)O)CC4)cc3s2)c1NC(=O)O[C@H](C)c1ccccc1 [IT418]	50 to 500 nM	< 50 nM
Cc1nsc(-c2cc3sc(-c4cc(F)c(C5(C(=O)O)CC5)c(F)c4)cc3s2)c1NC(=O)O[C@H](C)c1ccccc1 [IT263]	50 to 500 nM	< 50 nM
C[C@@H](OC(=O)Nc1c(-c2cc3sc(-c4cc(F)c(CC(=O)O)c(F)c4)cc3s2)nnn1C)c1ccccc1 [IT158]	50 to 500 nM	50 to 500 nM
C[C@@H](OC(=O)Nc1c(-c2ccc(-c3cc(F)c(Oc4ccsc4C(=O)O)c(F)c3)cc2)cnn1C)c1ccccc1 [IT465]	< 50 nM	< 50 nM
C[C@@H](OC(=O)Nc1c(-c2cc3sc(-c4ccc(CC(=O)O)s4)cc3s2)cnn1C)c1ccccc1 [IT147]	> 500 nM	50 to 500 nM
Cc1nsc(-c2cc3sc(-c4cnc(C5(C(=O)O)CC5)c(F)c4)cc3s2)c1NC(=O)O[C@H](C)c1ccccc1 [IT394]	50 to 500 nM	< 50 nM
Cc1nsc(-c2cc3sc(-c4cnc(C5(C(=O)O)CC5)s4)cc3s2)c1NC(=O)O[C@H](C)c1ccccc1 [IT184]	> 500 nM	> 500 nM
Cc1noc(-c2ccc(-c3ccc(S(N)(=O)=O)cc3)cc2)c1NC(=O)O[C@H](C)c1ccccc1 [IT129]	> 500 nM	50 to 500 nM
Cc1nsc(-c2ccc(-c3cc(F)c(OC(C)(C)C(=O)O)c(F)c3)cc2)c1NC(=O)O[C@H](C)c1ccccc1 [IT502]	> 500 nM	50 to 500 nM
CCOC(=O)c1ccccc1Oc1ccc(-c2ccc(-c3nnn(C)c3NC(=O)O[C@H](C)c3ccccc3)cc2)cc1 [IT477]	50 to 500 nM	< 50 nM
Cc1noc(-c2ccc(-c3ccc(NS(C)(=O)=O)cc3)cc2)c1NC(=O)O[C@H](C)c1ccccc1 [IT195]	> 500 nM	50 to 500 nM
C[C@@H](OC(=O)Nc1c(C#Cc2cc3sc(C4(C(=O)O)CC4)cc3s2)cnn1C)c1c(F)c(F)c(F)c(F)c1F [IT118]	> 500 nM	> 500 nM
C[C@@H](OC(=O)Nc1c(-c2ccc(-c3cc(F)c(OC4(C(=O)O)CC4)c(F)c3)cc2)nnn1C)c1ccccc1 [IT312]	50 to 500 nM	< 50 nM
Cc1noc(-c2ccc(-c3ccc(Oc4cc(F)ccc4C(=O)O)cc3)cc2)c1NC(=O)O[C@H](C)c1ccccc1 [IT467]	50 to 500 nM	< 50 nM
C[C@@H](OC(=O)Nc1c(-c2cc3sc(-c4ccc(C5(C(=O)O)CC5)c(F)c4F)cc3s2)nnn1C)c1ccccc1 [IT365]	50 to 500 nM	< 50 nM
C[C@@H](OC(=O)Nc1c(CCc2cc3sc(C4(C(=O)O)CC4)cc3s2)cnn1C)c1ccccc1 [IT099]	> 500 nM	–
C[C@@H](OC(=O)Nc1c(C#Cc2ccc3cc(C4(C(=O)O)CC4)ccc3c2)cnn1C)c1ccccc1 [IT014]	50 to 500 nM	–
C[C@@H](OC(=O)Nc1c(-c2cc(F)c(-c3ccc(C4(C(=O)O)CC4)cc3)cc2F)oc2ccccc12)c1ccccc1 [IT075]	50 to 500 nM	–
C[C@@H](OC(=O)Nc1c(-c2ccc(-c3ccc(C4(C(=O)O)CC4)cc3)cc2)nc2cnccn12)c1ccccc1 [IT032]	50 to 500 nM	–

SMILES	EC50 [1]	EC50 [2]
Cc1nsc(C#Cc2cc3sc(C4(C(=O)O)CC4)cc3s2)c1NC(=O)O[C@H](C)c1ccccc1 [IT034]	50 to 500 nM	–
C[C@@H](OC(=O)Nc1c(-c2ccc(-c3ccc(C4(C(=O)O)CC4)cc3)cc2)nn2cccnc12)c1ccccc1 [IT052]	> 500 nM	–
COc1ccccc1OC(=O)C1(c2cc3sc(C#Cc4cnn(C)c4NC(=O)O[C@H](C)c4ccccc4)cc3s2)CC1 [IT088]	50 to 500 nM	–
CCn1ncc(C#Cc2ccc3cc(C4(C(=O)O)CC4)ccc3c2)c1NC(=O)O[C@H](C)c1ccccc1 [IT016]	50 to 500 nM	–
C[C@@H](OC(=O)Nc1c(C#Cc2cc3sc(C4(C(=O)OCC(=O)N(C)C)CC4)cc3s2)cnn1C)c1ccccc1 [IT090]	50 to 500 nM	–
COCCOC(=O)C1(c2cc3sc(C#Cc4cnn(C)c4NC(=O)O[C@H](C)c4ccccc4)cc3s2)CC1 [IT084]	50 to 500 nM	–
C[C@@H](OC(=O)N(C)c1c(C#Cc2cc3sc(C4(C(=O)O)CC4)cc3s2)cnn1C)c1ccccc1 [IT097]	> 500 nM	–
C[C@@H](OC(=O)Nc1c(-c2ccc3cc(C#CC4(C(=O)O)CC4)ccc3c2)nnn1C)c1ccccc1 [IT146]	50 to 500 nM	–
C[C@@H](OC(=O)Nc1c(C2CCC(c3ccc(C4(C(=O)O)CC4)cc3)CC2)cnn1C)c1ccccc1 (stereo partly shown) [IT066]	> 500 nM	–
C[C@@H](OC(=O)Nc1c(C#Cc2ccc3cc(C4(C(=O)O)CC4)ccc3c2)cnn1C1CC1)c1ccccc1 [IT015]	50 to 500 nM	–
C[C@@H](OC(=O)Nc1c(-c2cc(F)c(-c3ccc(C4(C(=O)O)CC4)cc3)cc2F)nn2ccccc12)c1ccccc1 [IT049]	50 to 500 nM	–
C[C@@H](OC(=O)Nc1c(-c2ccc(-c3ccc(C4(C(=O)O)CC4)cc3)cc2)sc2ncccc12)c1ccccc1 [IT031]	50 to 500 nM	–
C[C@@H](OC(=O)Nc1c(C#Cc2ccc3cc(C4(C(=O)O)CC4)ccc3c2)nnn1C)c1ccccc1 [IT064]	50 to 500 nM	–
C[C@@H](OC(=O)Nc1c(-c2cc(F)c(-c3cc4sc(C5(C(=O)O)CC5)cc4s3)cc2F)nnn1C)c1ccccc1 [IT071]	50 to 500 nM	–
Cc1noc(-c2ccc(-c3ccc4c(c3)NC(=O)CC4C(=O)O)cc2)c1NC(=O)O[C@H](C)c1ccccc1 (stereo partly shown) [IT011]	> 500 nM	–
C[C@@H](OC(=O)Nc1c(-c2ccc(-c3cc4sc(C5(C(=O)O)CC5)cc4s3)cc2)cnn1C)c1ccccc1 [IT056]	50 to 500 nM	–
Cc1noc(C#Cc2cc3sc(C4(C(=O)O)CC4)cc3s2)c1NC(=O)OCc1ccccc1 [IT048]	50 to 500 nM	–
Cc1nnn(-c2cc(F)c(-c3cc4sc(C5(C(=O)O)CC5)cc4s3)cc2F)c1NC(=O)O[C@H](C)c1ccccc1 [IT067]	> 500 nM	–
